Measurements reported in patent US5652359A, “Oligonucleotides containing n-methyl thiolated bases having antiviral activity” (Epoch Pharmaceuticals, Inc., priority 1993, dated 1997).
Converted amounts (≈) assume the structure as drawn.

What was measured:
[1] = target: T1, HIV-1 reverse transcriptase (RT) (Human immunodeficiency virus type 1 group M subtype B, UniProt P04585); test: HIV reverse transcriptase assay, HIV-1; format: biochemical; conditions: RNA-dependent enzyme assay, 30 minutes at 37° C.
T1 construct: as a 66 and 51 kDa protein dimer; made in house; host or cells: bacteria
Description: HIV-1 reverse transcriptase (RT) was expressed from a recombinant plasmid in bacteria as a 66 and 51 kDa protein dimer as described by D'Aquila R. T. and Summers W. C., (1989) J. ACQUIRED IMMUNE DEFIC SYNDR 2:579-587.
The standard reaction mixture for the RNA-dependent enzyme assays contained in a 50 uL volume: 50 mM Tris-HCl, pH 7.8, 50 mM KCl, 6 mM MgCl2, 0.1 mg/mL heat-inactivated bovine serum albumin, 1 mM dithiothreitol, 0.5 0D260 units/mL template-primer Poly(rC) oligo(dG)12-18, 10 uM [^3 H]dGTP and 3.3×10^-3 units of HIV-1 RT. A unit was defined as the amount of enzyme necessary to incorporate 1 nanomol of [^3 H]dTMP into the Poly(rA)-oligo(dT)10 template in 1.0 min at 37° C. The samples were incubated for 30 minutes at 37° C., and all reactions were carried out in the linear range. Aliquot of 40 uL were spotted on glass fiber filters (Whatman GF/A) and processed for determination of trichloroacetic acid-insoluble radioactivity as described by Cheng Y. C., Dutschman G. E., Bastow K. F., Sarngadharan M. G., and Ting R. Y. C. (1987) J. BIOL CHEM 262:2187-2189. Poly(rA)-oligo(dT)10was used as template-primer.
Table 4 indicates the results obtained in this assay with examplary oligonucleotides of the invention. The oligonucleotides are identified by their respective "compound number".

HSV-1 DNA polymerase = HSV-1 DNA polymerase (Human herpesvirus 1, UniProt P04293); test: HSV DNA polymerase assay, HSV-1; format: biochemical; conditions: activated calf thymus DNA, 30 minutes at 37° C.
Description: (§1) HSV DNA polymerases were assayed as described by Ostrander M., and Cheng Y. C., (1980) BIOCHEM. BIOPHYS. ACTA 609:232-245. The standard assay mixture (total volume 50 uL) contained 25 mM Tris-HCl pH 8, 10 mM MgCl2, 0.5 mM dithiothreitol, 0.5 mg/mL BSA, 200 mM KCl, 100 ug/mL activated calf thymus DNA, 0.1 mM each dATP, dCTP, dGTP, 5 uM [^3 H]dTTP (2 Ci/mmol), 4-5×10-^4 units of enzyme, and different drug concentrations. After incubation at 37° C. for 30 minutes, the reaction mixture was spotted on 2.4 cm Whatman GF/A glass fiber filter discs and trichloroacetic acid-insoluble radioactivity was measured.
(§2) One unit of DNA polymerase activity is defined as the amount of enzyme which catalyzes the incorporation of 1 nanomol of dTMP into activated DNA/30 min. […] IC50 is that concentration (expressed in micromoles) of the novel oligonucleotide which results in 50% inhibition of the enzyme.

[2] = target: T2, HIV-2 reverse transcriptase (Human immunodeficiency virus type 2 subtype A, UniProt P04584); test: HIV reverse transcriptase assay, HIV-2; format: biochemical; conditions: RNA-dependent enzyme assay, 30 minutes at 37° C.
T2 construct: HIV REVERSE TRANSCRIPTASE ASSAY

HSV-2 DNA polymerase = target: T3, HSV-2 DNA polymerase (Human herpesvirus 2, UniProt P89453); test: HSV DNA polymerase assay, HSV-2; format: biochemical; conditions: activated calf thymus DNA, 30 minutes at 37° C.
T3 sequence (P89453 1-1240): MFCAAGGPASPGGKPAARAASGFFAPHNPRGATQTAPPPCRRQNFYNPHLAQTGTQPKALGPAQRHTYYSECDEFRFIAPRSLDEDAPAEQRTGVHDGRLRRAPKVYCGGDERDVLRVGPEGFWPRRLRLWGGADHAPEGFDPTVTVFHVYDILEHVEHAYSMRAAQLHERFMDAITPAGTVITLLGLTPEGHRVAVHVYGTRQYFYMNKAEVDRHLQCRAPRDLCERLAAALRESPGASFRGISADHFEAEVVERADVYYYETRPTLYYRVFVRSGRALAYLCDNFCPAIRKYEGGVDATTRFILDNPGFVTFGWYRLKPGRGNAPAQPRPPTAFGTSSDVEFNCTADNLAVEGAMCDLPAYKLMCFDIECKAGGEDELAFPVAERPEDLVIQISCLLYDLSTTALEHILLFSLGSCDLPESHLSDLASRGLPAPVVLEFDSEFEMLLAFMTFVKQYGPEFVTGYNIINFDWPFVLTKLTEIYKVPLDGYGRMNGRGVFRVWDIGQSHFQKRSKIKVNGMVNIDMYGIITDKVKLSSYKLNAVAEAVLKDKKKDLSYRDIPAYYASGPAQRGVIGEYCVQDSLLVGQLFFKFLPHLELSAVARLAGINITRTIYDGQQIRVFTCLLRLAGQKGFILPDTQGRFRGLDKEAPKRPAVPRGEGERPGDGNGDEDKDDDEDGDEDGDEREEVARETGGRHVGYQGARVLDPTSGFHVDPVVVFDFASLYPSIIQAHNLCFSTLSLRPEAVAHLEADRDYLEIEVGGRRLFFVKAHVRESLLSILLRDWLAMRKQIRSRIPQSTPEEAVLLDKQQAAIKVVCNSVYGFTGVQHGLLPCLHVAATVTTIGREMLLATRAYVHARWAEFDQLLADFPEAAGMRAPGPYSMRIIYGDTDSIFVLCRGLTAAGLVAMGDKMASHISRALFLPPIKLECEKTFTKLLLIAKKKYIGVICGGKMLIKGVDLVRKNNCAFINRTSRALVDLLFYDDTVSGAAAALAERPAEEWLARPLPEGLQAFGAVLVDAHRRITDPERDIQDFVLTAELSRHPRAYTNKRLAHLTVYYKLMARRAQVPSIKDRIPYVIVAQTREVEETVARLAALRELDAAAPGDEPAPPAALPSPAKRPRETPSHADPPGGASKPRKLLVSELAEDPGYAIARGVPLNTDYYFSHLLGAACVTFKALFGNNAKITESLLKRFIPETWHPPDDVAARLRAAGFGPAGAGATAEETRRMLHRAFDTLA
Description: as §1, §2

[3] = test system: Human cytomegalovirus (HCMV), strain AD-169; test: In vitro human cytomegalovirus inhibition (plaque) assay in MRC-5 cells; format: cell-based
Source text: (§3) Cells MRC-5, an immortalized line of diploid, human ([…]) embryonic lung cells were used. These can be obtained from the American Type Culture Collection, Rockville, Md.
Virus Human cytomegalovirus (HCMV), strain AD-169 were used. These can be obtained from the American Type Culture Collection, Rockville, Md.
Medium Growth medium for the MRC-5 cells consisted of Basal Medium Eagle (BME) (GIBCO BRL, Research Products Division, Life Technologies, Inc., Grand Island, N.Y. was the source of all media) with 10% fetal bovine serum (FBS) (Hyclone Laboratories, Logan Utah), 0.035% NaHCO3. Antibiotics were not used in the growth media. Test medium for dilution of HCMV and for preparation and dilution of compounds for the experiments was DMEM, 2% FBS, 0.1% NaHCO3, 50 μg gentamicin/ml.
All compounds were prepared and diluted to the concentrations indicated in test medium. Growth medium was decanted from established monolayers of MRC-5 cells in 24-well tissue culture plates (Corning Glass Works, Corning, N.Y.). One ml of virus, diluted in test medium, was placed in each well except those to be used for cell controls. One ml of sterile test medium was placed in each of these cell control wells. Virus was allowed to adsorb to the cells while plates were centrifuged at 2200 rpm for 30 minutes at room temperature. Medium was aspirated from each well of the plates and 0.8 ml of the proper compound dilution was placed in each of the test wells (2 wells/dilution). Test medium without compound was added (0.8 ml/well) to each cell control and virus control well. Plates were placed in an incubator at 37° C. in a moist atmosphere of 5% CO2, 95% air until plaques could be distinguished in the virus control wells. […] After 15 minutes, the stain was aspirated, the plates were rinsed in running tap water until the water was clear, and the plates were inverted and dried at room temperature. Plaques were counted by use of a dissecting microscope.
ED50 and CD50 values were calculated by regression analysis of the viral plaque data and the visual cell toxicity data, respectively. […] CD50 is the concentration halfway between those at which 100% and 0% cytotoxicity are seen.

[4] = Visual cell toxicity in MRC-5 cells (HCMV assay); format: cell-based; conditions: human, previous data, read-out: CD50 (cytotoxicity)
Description: as §3
All compounds were prepared and diluted to the concentrations indicated in test medium. Growth medium was decanted from established monolayers of MRC-5 cells in 24-well tissue culture plates (Corning Glass Works, Corning, N.Y.). One ml of virus, diluted in test medium, was placed in each well except those to be used for cell controls. One ml of sterile test medium was placed in each of these cell control wells. Virus was allowed to adsorb to the cells while plates were centrifuged at 2200 rpm for 30 minutes at room temperature. Medium was aspirated from each well of the plates and 0.8 ml of the proper compound dilution was placed in each of the test wells (2 wells/dilution). Test medium without compound was added (0.8 ml/well) to each cell control and virus control well. Plates were placed in an incubator at 37° C. in a moist atmosphere of 5% CO2, 95% air until plaques could be distinguished in the virus control wells. […] Plaques were counted by use of a dissecting microscope.
ED50 and CD50 values were calculated by regression analysis of the viral plaque data and the visual cell toxicity data, respectively. […]

T2 sequence (P04584 613-1171 limits assumed): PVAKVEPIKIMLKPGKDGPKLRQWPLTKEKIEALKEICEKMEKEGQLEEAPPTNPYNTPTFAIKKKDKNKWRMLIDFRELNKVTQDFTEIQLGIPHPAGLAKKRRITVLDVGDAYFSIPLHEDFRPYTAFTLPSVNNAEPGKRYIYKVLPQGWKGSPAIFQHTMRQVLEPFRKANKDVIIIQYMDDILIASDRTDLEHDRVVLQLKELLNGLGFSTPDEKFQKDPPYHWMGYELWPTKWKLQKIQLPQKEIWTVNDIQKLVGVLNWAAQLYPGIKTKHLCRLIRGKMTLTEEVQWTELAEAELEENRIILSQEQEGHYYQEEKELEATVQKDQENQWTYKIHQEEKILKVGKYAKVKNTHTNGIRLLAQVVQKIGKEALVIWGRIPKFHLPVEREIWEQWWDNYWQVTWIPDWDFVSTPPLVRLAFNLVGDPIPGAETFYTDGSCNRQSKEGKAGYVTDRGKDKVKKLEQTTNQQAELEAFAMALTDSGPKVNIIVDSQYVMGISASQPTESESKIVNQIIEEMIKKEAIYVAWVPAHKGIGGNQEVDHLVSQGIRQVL
Chain of HSV-1 DNA polymerase (P04293 whole entry): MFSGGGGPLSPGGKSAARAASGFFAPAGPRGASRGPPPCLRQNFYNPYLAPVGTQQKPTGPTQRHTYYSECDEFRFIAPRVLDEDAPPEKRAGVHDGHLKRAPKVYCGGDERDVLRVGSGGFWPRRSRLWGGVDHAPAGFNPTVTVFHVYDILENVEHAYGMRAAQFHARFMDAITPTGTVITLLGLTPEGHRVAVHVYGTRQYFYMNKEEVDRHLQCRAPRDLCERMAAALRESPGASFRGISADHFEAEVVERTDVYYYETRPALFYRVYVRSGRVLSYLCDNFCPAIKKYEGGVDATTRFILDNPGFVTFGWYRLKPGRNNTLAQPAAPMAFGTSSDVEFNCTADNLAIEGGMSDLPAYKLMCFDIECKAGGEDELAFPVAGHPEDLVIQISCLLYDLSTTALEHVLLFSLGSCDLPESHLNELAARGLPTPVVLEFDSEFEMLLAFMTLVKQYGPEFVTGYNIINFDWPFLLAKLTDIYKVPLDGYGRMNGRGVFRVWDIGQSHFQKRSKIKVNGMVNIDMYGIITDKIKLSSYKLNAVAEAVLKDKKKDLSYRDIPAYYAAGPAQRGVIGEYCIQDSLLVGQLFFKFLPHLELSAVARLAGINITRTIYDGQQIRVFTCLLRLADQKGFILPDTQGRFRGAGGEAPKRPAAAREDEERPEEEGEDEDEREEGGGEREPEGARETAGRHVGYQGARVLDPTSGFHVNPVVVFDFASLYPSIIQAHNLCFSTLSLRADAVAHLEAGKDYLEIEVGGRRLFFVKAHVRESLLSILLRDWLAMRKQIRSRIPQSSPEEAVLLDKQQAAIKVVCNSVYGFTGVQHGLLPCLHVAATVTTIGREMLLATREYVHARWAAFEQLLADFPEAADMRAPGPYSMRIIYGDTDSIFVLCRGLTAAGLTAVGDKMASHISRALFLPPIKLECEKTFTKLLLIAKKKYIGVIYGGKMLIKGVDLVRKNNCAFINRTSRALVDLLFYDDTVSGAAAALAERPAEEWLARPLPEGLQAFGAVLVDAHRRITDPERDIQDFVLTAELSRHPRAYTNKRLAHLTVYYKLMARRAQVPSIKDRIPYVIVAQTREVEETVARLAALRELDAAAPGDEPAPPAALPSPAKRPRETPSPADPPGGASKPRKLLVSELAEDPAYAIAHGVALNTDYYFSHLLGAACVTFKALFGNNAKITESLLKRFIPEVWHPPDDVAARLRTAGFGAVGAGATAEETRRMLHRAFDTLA

Question: For 5[dCyd3P(S)(O)]27dCyd [SdC28], which IC50 [1] is on record?
Answer: 15 ± 4 nM

Question: And the IC50 (HSV-1 DNA polymerase)?
Answer: 30 nM

Question: What about the IC50 [2] of the same molecule?
Answer: 71 ± 11 nM

Question: And the IC50 (HSV-2 DNA polymerase)?
Answer: 90 nM

Question: Which “# of plaques” value ([3]; 0.32 μg/ml) does the source give for Nc1nc(O)c2ncn(COC(CO)CO)c2n1 [DHPG, Ganciclovir] here?
Answer: 39.5

Question: What about the “# of plaques” value ([3]; 1.0 μg/ml) of the same molecule?
Answer: 33.5

Question: What about the “# of plaques” value ([3]; 3.2 μg/ml) of the same molecule?
Answer: 10.5

Question: And the “# of plaques” value ([3]; 10 μg/ml)?
Answer: 0.0

Question: What about the “Therapeutic Index TI = CD50/ED50” value ([3]; HCMV, MRC-5 cells) of the same molecule?
Answer: > 588

Question: And the inhibition at 0.32 µg/mL ([3]; Human betaherpesvirus 5, AD169, MRC5, 0.32 μg/ml, read-out: % reduction (plaques))?
Answer: 14%

Question: What about the inhibition at 1 µg/mL ([3]; Human betaherpesvirus 5, AD169, MRC5, 1.0 μg/ml, read-out: % reduction (plaques)) of the same molecule?
Answer: 27%

Question: What about the inhibition at 3.2 µg/mL ([3]; Human betaherpesvirus 5, AD169, MRC5, 3.2 μg/ml, read-out: % reduction (plaques)) of the same molecule?
Answer: 77%

Question: What about the inhibition at 10 µg/mL ([3]; Human betaherpesvirus 5, AD169, MRC5, 10 μg/ml, read-out: % reduction (plaques)) of the same molecule?
Answer: 100%

Question: And the EC50 ([3]; Human betaherpesvirus 5, AD169, MRC5, regression analysis of viral plaque data, read-out: ED50 (plaques reduced to 50% of virus controls))?
Answer: 1.7 µg/mL (≈ 6.66 µM)

Question: What about the CC50 [4] of the same molecule?
Answer: > 1000 µg/mL
